Measurements from US20090305276A1, “Method for Predicting Skin Sensitizing Activity of Compounds” (priority 2008, published 2009).

Test system: AKR
Test: AKR (aldo-keto reductase) marker gene expression in cultured mammalian cells
Format: cell-based
Design: key: The ++ signs indicate positive response and the number represents the magnitude of response; The ++ signs indicate positive response and the number represents the magnitude of response; −−−: The dashed lines indicate no measurable response; −−−−: The dashed lines indicate no measurable response; −−−−−: The dashed lines indicate no measurable response
Details: gene marker response, preliminary data
Source text: (§1) Specifically, chemicals would be placed in an appropriate vehicle such as DMSO and applied to appropriate mammalian cells, such as human keratinocytes (HaCat cells), 3D human skin cells, normal human epithelial cells (NHEK cells), MCF7 cells, H4IIE cells (ATCC Accession #CRL-1548), or combination cultures including keratinocyte and dendritic cells. Following exposure times of 6, 24, and 72 hr the expression levels of several genes that are associated with an increase risk for sensitization type reactions. The expression of key gene markers associated with sensitization that include but are not limited to quinone reductase, IL-8, CD-86, aldo-keto reductase, thioredoxin, and thioredoxin reductase is measured by RT-PCR.
(§2) In specific embodiments, the expression of gene markers is measured. Appropriate gene markers for the methods of the invention include but are not limited to quinone reductase, IL-8, CD-86, aldo-keto reductase, thioredoxin, and thioredoxin reductase. Expression levels may be measured by any appropriate method of measuring gene expression, including but not limited to polymerase chain reaction (PCR), reverse transcriptase PCR (RT-PCR), fluorescent in situ hybridization (FISH), branched DNA (bDNA) assay, differential display, RNA interference, reporter genes, microarrays, and proteomics. For instance, expression levels may be measured by RT-PCR in at least triplicates. The standard protocols for performing RT-PCR may be obtained from Invitrogen, (Carlsbad, Calif.). Standard methods and protocols for measuring gene expression are described in the literature and in treatises such as Sambrook et al., “Molecular Cloning: A Laboratory Manual” and Avison, Matthew, “Measuring Gene Expression,” Taylor and Francis (2006). These protocols are incorporated herein by reference in their entirety.
(§3) As shown in Table 2 (below), preliminary data were collected and used to build the algorithm for predicting the sensitization. NQO1 is quinone reductase; IL-8 is interleukin-8; and AKR is aldo-keto reductase.
(§4) The compounds listed in Table 2 are known skin sensitizers with different magnitudes of effect. In this example, three gene markers are measured to develop a relationship between the magnitude of response, the number of genes responding above about 15%, and the minimum exposure concentration where expression occurred. The ++ signs indicate positive response and the number represents the magnitude of response. The dashed lines indicate no measurable response.

| SMILES | AKR |
| --- | --- |
| CCCOC(=O)c1cc(O)c(O)c(O)c1 [Propyl Gallate] | ++ |
| CC=Cc1ccc(O)c(OC)c1 [Isoeugenol] | ++ |
| O=C(C=Cc1ccccc1)OCc1ccccc1 [Benzyl Cinnamate] | ++ |
| O=C(O)c1ccccc1 [Benzoic Acid] | −−−−− |
| O=C(Oc1ccccc1)c1ccccc1 [Phenyl Benzoate] | −−−− |
| O=C1OC(=O)c2ccccc21 [Phthalic Anhydride] | ++ |
| COc1cc(C=O)ccc1O [Vanillin] | −−−− |

Test system: NQO1
Test: NQO1 (quinone reductase) marker gene expression in cultured mammalian cells
Format: cell-based
Design: key: The ++ signs indicate positive response and the number represents the magnitude of response; The ++ signs indicate positive response and the number represents the magnitude of response; −−−: The dashed lines indicate no measurable response; −−−−: The dashed lines indicate no measurable response; −−−−−: The dashed lines indicate no measurable response
Details: gene marker response, preliminary data
Source text: as §1, §2, §3, §4

| SMILES | NQO1 |
| --- | --- |
| CCCOC(=O)c1cc(O)c(O)c(O)c1 [Propyl Gallate] | ++ |
| CC=Cc1ccc(O)c(OC)c1 [Isoeugenol] | + |
| O=C(C=Cc1ccccc1)OCc1ccccc1 [Benzyl Cinnamate] | ++ |
| O=C(O)c1ccccc1 [Benzoic Acid] | −−−− |
| O=C(Oc1ccccc1)c1ccccc1 [Phenyl Benzoate] | + |
| O=C1OC(=O)c2ccccc21 [Phthalic Anhydride] | ++ |
| COc1cc(C=O)ccc1O [Vanillin] | + |

Test system: skin
Test: not given
Details: in vivo; cited from earlier work

| SMILES | Sensitizer Class |
| --- | --- |
| CCCOC(=O)c1cc(O)c(O)c(O)c1 [Propyl Gallate] | Strong |

Same assay, conditions: known skin sensitizers with different magnitudes of effect; cited from earlier work

| SMILES | Sensitizer Class |
| --- | --- |
| CC=Cc1ccc(O)c(OC)c1 [Isoeugenol] | Moderate |
| O=C(O)c1ccccc1 [Benzoic Acid] | Non- |
| O=C(Oc1ccccc1)c1ccccc1 [Phenyl Benzoate] | Weak |
| O=C1OC(=O)c2ccccc21 [Phthalic Anhydride] | Strong |
| COc1cc(C=O)ccc1O [Vanillin] | Very Weak |

Test system: IL-8
Test: IL-8 (interleukin-8) marker gene expression in cultured mammalian cells
Format: cell-based
Design: key: The ++ signs indicate positive response and the number represents the magnitude of response; The ++ signs indicate positive response and the number represents the magnitude of response; −−−: The dashed lines indicate no measurable response; −−−−: The dashed lines indicate no measurable response; −−−−−: The dashed lines indicate no measurable response
Details: gene marker response, preliminary data
Source text: as §1, §2, §3, §4

| SMILES | IL-8 |
| --- | --- |
| CCCOC(=O)c1cc(O)c(O)c(O)c1 [Propyl Gallate] | ++ |
| CC=Cc1ccc(O)c(OC)c1 [Isoeugenol] | + |
| O=C(C=Cc1ccccc1)OCc1ccccc1 [Benzyl Cinnamate] | −−− |
| O=C(O)c1ccccc1 [Benzoic Acid] | −−−−− |
| O=C(Oc1ccccc1)c1ccccc1 [Phenyl Benzoate] | + |
| O=C1OC(=O)c2ccccc21 [Phthalic Anhydride] | + |
| COc1cc(C=O)ccc1O [Vanillin] | −−−− |

Test system: local draining lymph nodes (lymphocyte proliferation)
Test: not given
Details: known LLNA data; estimated concentration required to produce a stimulation index of 3; cited from earlier work

| SMILES | LLNA E3C |
| --- | --- |
| CCCOC(=O)c1cc(O)c(O)c(O)c1 [Propyl Gallate] | 15.09 |
| CC=Cc1ccc(O)c(OC)c1 [Isoeugenol] | 110 |
| O=C(Oc1ccccc1)c1ccccc1 [Phenyl Benzoate] | 863 |
| O=C1OC(=O)c2ccccc21 [Phthalic Anhydride] | 10.8 |
